Results from patent publication US20200231607A1, “TRISUBSTITUTEDSILYLHETEROARYLOXYQUINOLINES AND ANALOGUES” (Bayer Aktiengesellschaft, priority 2017, published 2020).

Tests used:
[1] = HPLC, reversed-phase C 18, 40° C., 0.1% aqueous formic acid and acetonitrile, gradient 10% to 95% acetonitrile
Description: temperature: 40° C.; mobile phases: 0.1% aqueous formic acid and acetonitrile; linear gradient from 10% acetonitrile to 95% acetonitrile;
Calibration was carried out using unbranched alkan-2-ones (comprising 3 to 16 carbon atoms) with known log P values (determination of the log P values by the retention times using linear interpolation between two successive alkanones). lambda-max-values were determined using UV-spectra from 200 nm to 400 nm and the peak values of the chromatographic signals.

[2] = tested on: Colletotrichum lindemuthianum; assay: In vitro cell test on Colletotrichum lindemuthianum; assay type: cell-based; conditions: 144 h, 20 ppm of active ingredient, 6 days incubation, liquid culture, spectrometric measurement of mycelium growth, read-out: efficacy (inhibition of fungal growth)
Description: (§1) Solvent: dimethyl sulfoxide Culture medium: 14.6 g anhydrous D-glucose (VWR), • 7.1 g mycological peptone (Oxoid), • 1.4 g granulated yeast extract (Merck), QSP 1 liter Inoculum: spore suspension The tested compounds were solubilized in dimethyl sulfoxide and the solution used to prepare the required range of concentrations. […] A spore suspension of Colletotrichum lindemuthianum was prepared and diluted to the desired spore density. The compounds were evaluated for their ability to inhibit spore germination and mycelium growth in liquid culture assay. The compounds were added in the desired concentration to the culture medium with spores. After 6 days incubation, fungi-toxicity of compounds was determined by spectrometric measurement of mycelium growth. Inhibition of fungal growth was determined by comparing the absorbance values in wells containing the tested compound with the absorbance in control wells without the tested compound.

[3] = tested on: Leptnosphaeria nodorum; assay: In vitro cell test on Leptnosphaeria nodorum; assay type: cell-based; conditions: 120 h; 20 ppm of active ingredient; 5 days incubation; liquid culture, spectrometric measurement of mycelium growth; read-out: efficacy (inhibition of fungal growth)
Description: as §1, with “of Leptnosphaeria nodorum” for “of Colletotrichum lindemuthianum”, “After 5” for “After 6”

[4] = tested on: Pyricularia oryzae; assay: microbe, parasite or virus in culture; assay type: cell-based; conditions: 120 h, read-out: efficacy (inhibition of fungal growth)

SMILES | chromatographic logP [1] | other results
C[Si](C)(C)c1cnccc1Oc1cnc2ccccc2n1 [I.01] |  | logP [1]: 2.64
C[Si](C)(C)c1cnccc1Oc1cnc2ccccc2c1 [I.02] |  | logP [1]: 2.15
C[Si](C)(C)c1c(Oc2cnc3ccccc3c2)ccnc1F [I.03, 3-{[2-fluoro-3-(trimethylsilyl)pyridin-4-yl]oxy}quinoline] | 4.08 | inhibition at 20 ppm [2]: 90 to 100%; inhibition at 20 ppm [3]: 90 to 100%; inhibition at 20 ppm [4]: 90 to 100%
C[Si](C)(Cc1ccccc1)c1c(Oc2cnc3ccccc3c2)ccnc1F [I.06, 3-({3-[benzyl(dimethyl)silyl]-2-fluoropyridin-4-yl}oxy)quinoline] | 4.78 | inhibition at 20 ppm [2]: 80 to 89%; inhibition at 20 ppm [3]: 80 to 89%; inhibition at 20 ppm [4]: 90 to 100%
C[Si](C)(C)c1cnccc1Oc1cnc2c(F)cccc2n1 [I.15] |  | logP [1]: 2.75
Cc1nc2c(F)c(F)ccc2nc1Oc1ccncc1[Si](C)(C)C [I.18] |  | logP [1]: 2.80
Cc1nc2c(F)c(F)ccc2nc1Oc1cnccc1[Si](C)(C)C [I.19] |  | logP [1]: 3.94
Cc1nc2ccccc2nc1Oc1ccncc1[Si](C)(C)C [I.23] |  | logP [1]: 2.49
Cc1nc2ccccc2n1Cc1sccc1[Si](C)(C)C [I.24, 2-methyl-1-{[3-(trimethylsilyl)-2-thienyl]methyl}-1H-benzimidazole] | 2.13 | inhibition at 20 ppm [2]: 90 to 100%; inhibition at 20 ppm [3]: 90 to 100%; inhibition at 20 ppm [4]: 90 to 100%
C[Si](C)(C)c1sccc1Cn1cnc2ccccc21 [I.25] |  | logP [1]: 2.08
C[Si](C)(c1ccccc1)c1sccc1Cn1cnc2ccccc21 [I.26] |  | logP [1]: 2.49
Cc1nc2c(F)c(F)ccc2cc1Cc1sccc1[Si](C)(C)C [I.28, 7,8-difluoro-2-methyl-3-{[3-(trimethylsilyl)-2-thienyl]methyl}-quinoline] | 5.25 | 
Cc1nc2c(F)c(F)ccc2nc1Oc1cccnc1Br [IIa.01, 2-[(2-bromopyridin-3-yl)oxy]-5,6-difluoro-3-methylquinoxaline] | 3.26 | 
Cc1nc2c(F)c(F)ccc2nc1Oc1cc(Cl)cnc1Br [IIa.02, 2-[(2-bromo-5-chloropyridin-3-yl)oxy]-5,6-difluoro-3-methylquinoxaline] | 4.3 | 
Fc1ccc2nc(Oc3cccnc3Br)cnc2c1F [IIa.03, 2-[(2-bromopyridin-3-yl)oxy]-5,6-difluoroquinoxaline] | 2.96 | 
Fc1cccc2cc(Nc3cccnc3Cl)cnc12 [IIa.04, N-(2-chloropyridin-3-yl)-8-fluoroquinolin-3-amine] | 2.14 | 
Fc1nccc(Oc2cnc3ccccc3c2)c1Br [IIb.01, 3-[(3-bromo-2-fluoropyridin-4-yl)oxy]quinoline] | 2.96 | logP [1]: 2.92
Cc1nc2c(F)c(F)ccc2nc1Oc1cc(Cl)ncc1Br [IIb.02, 2-[(5-bromo-2-chloropyridin-4-yl)oxy]-5,6-difluoro-3-methylquinoxaline] | 4.2 | 
Fc1ccc2nc(Oc3ccncc3Br)cnc2c1F [IIb.03, 2-[(3-bromopyridin-4-yl)oxy]-5,6-difluoroquinoxaline] | 1.81 | 

SMILES | chromatographic logP [1] | other results
Clc1nccc(Nc2cnc3ccccc3c2)c1Br [IIb.04, N-(3-bromo-2-chloropyridin-4-yl)quinolin-3-amine] | 2.35 | 
COc1nccc(Oc2cc3ccc(F)c(F)c3nc2C)c1Br [IIb.05, 3-[(3-bromo-2-methoxypyridin-4-yl)oxy]-7,8-difluoro-2-methylquinoline] | 3.85 | 
Fc1nccc(Oc2cnc3c(F)cccc3c2)c1Br [IIb.06, 3-[(3-bromo-2-fluoropyridin-4-yl)oxy]-8-fluoroquinoline] | 2.98 | 
Clc1nccc(Oc2cnc3ccccc3c2)c1Br [IIb.07, 3-[(3-bromo-2-chloropyridin-4-yl)oxy]quinoline] | 2.35 | 
Fc1nccc(Nc2cnc3ccccc3c2)c1Br [IIb.08, N-(3-bromo-2-fluoropyridin-4-yl)quinolin-3-amine] | 2.25 | 
Cc1nc2c(F)c(F)ccc2cc1Oc1ccnc(C(F)(F)F)c1Br [IIb.09, 3-{[3-bromo-2-(trifluoromethyl)pyridin-4-yl]oxy}-7,8-difluoro-2-methylquinoline] | 4.01 | 
Cc1nc2c(F)c(F)ccc2cc1Nc1ccnc(C(F)(F)F)c1Br [IIb.10, N-[3-bromo-2-(trifluoromethyl)pyridin-4-yl]-7,8-difluoro-2-methylquinolin-3-amine] | 3.37 | 
Cc1nc2c(F)c(F)ccc2nc1Oc1cncc(Cl)c1Br [IIc.01, 2-[(4-bromo-5-chloropyridin-3-yl)oxy]-5,6-difluoro-3-methylquinoxaline] | 4.06 | 
Cc1nc2ccccc2cc1Oc1cnccc1Br [IIc.02, 3-[(4-bromopyridin-3-yl)oxy]-2-methylquinoline] | 2.44 | 
Cc1nc2c(F)c(F)ccc2nc1Oc1cnccc1Br [IIc.03, 2-[(4-bromopyridin-3-yl)oxy]-5,6-difluoro-3-methylquinoxaline] | 3.19 | 
Cc1nc2c(F)c(F)ccc2nc1Oc1ncc(Cl)cc1Br [IId.01, 2-[(3-bromo-5-chloropyridin-2-yl)oxy]-5,6-difluoro-3-methylquinoxaline] | 4.72 | 
Cc1nc2c(F)c(F)ccc2cc1Nc1ncc(Cl)cc1Br [IId.02, N-(3-bromo-5-chloropyridin-2-yl)-7,8-difluoro-2-methylquinolin-3-amine] | 4.36 | 
Clc1ncnc(Oc2cnc3ccccc3c2)c1Br [IIe.01, 3-[(5-bromo-6-chloropyrimidin-4-yl)oxy]quinoline] | 3.09 | 
Cc1nc2c(F)c(F)ccc2cc1Oc1sccc1Br [IIf.01, 3-[(3-bromo-2-thienyl)oxy]-7,8-difluoro-2-methylquinoline] | 4.23 | 
Clc1cc(Oc2cnc3ccccc3c2)ccn1 [VIIa.01, 3-[(2-chloropyridin-4-yl)oxy]quinoline] | 2.47 | 
Cc1nc2ccccc2cc1Oc1ccnc(F)c1 [VIIa.02, 3-[(2-fluoropyridin-4-yl)oxy]-2-methylquinoline] | 2.17 | 
Fc1cc(Oc2cnc3ccccc3c2)ccn1 [VIIa.03, 3-[(2-fluoropyridin-4-yl)oxy]quinoline] | 2.25 | 
Fc1cc(Oc2cnc3ccccc3c2)ncn1 [VIIb.01, 3-[(6-fluoropyrimidin-4-yl)oxy]quinoline] | 2.08 | 
